# Data published in paper PMC4666306 (European journal of medicinal chemistry, 2015).
# How the values were obtained:
# [1] = test system: BaF3 cells transformed with FLT3-ITD containing gatekeeper (F691L) mutation; details: 48 h post treatment
# [2] = test system: BaF3 cells transformed with FLT3-ITD containing activation loop (D835V) mutation; details: 48 h post treatment
structure (smiles),measurement,setting,value
"Fc1ccc(-c2cnc3cc(-c4ccco4)ccn23)cc1 [Compound 21, 3-(4-Fluorophenyl)-7-(furan-2-yl)imidazo[1,2-a]pyridine]",GI50 +ITD F691L,[1],ineffective
same,GI50 +ITD D835V,[2],ineffective
